For one assay, the target named is T1, KRAS WT (Homo sapiens, UniProt P01116).
T1 construct: aa1-188 KRAS WT
The assay is described as follows: HTRF nucleotide exchange assay, KRAS WT. Format: biochemical. The note with it: class symbols; for pIC50: HTRF nucleotide exchange assay (NEA). For orientation: TR-FRET usually uses a lanthanide donor and a delayed reading to cut background.

In another assay the target is T2, KRAS G12D (Homo sapiens, UniProt P01116, G12D).
T2 construct: aa1-188 KRAS WT, HRAS WT, NRAS WT, or KRAS containing the G12D
T2 sequence (P01116 1-188 isoform P01116-2 G12D): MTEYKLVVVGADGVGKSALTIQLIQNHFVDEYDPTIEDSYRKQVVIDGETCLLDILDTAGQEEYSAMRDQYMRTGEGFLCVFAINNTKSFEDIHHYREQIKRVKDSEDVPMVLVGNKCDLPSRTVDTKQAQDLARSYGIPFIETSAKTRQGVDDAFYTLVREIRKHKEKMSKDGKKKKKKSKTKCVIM
The assay is described as follows: HTRF nucleotide exchange assay, KRAS G12D. In kind it is biochemical. The note with it: HTRF nucleotide exchange assay (NEA), class symbols.

Structures are written as SMILES. pIC50: −log10 of the molar value.

T1 sequence (P01116 1-188 isoform P01116-2): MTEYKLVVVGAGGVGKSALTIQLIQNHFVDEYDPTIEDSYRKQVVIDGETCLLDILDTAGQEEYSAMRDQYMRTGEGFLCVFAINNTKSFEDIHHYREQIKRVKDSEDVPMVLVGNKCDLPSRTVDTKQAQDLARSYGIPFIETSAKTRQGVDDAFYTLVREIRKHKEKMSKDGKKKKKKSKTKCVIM

With `CCc1c(F)ccc2cc(O)cc(-c3c(F)c4nc(OCC5(CN(C)CC(F)(F)F)CC5)nc(N5CCOCC(C)(O)C5)c4c4cn(C)nc34)c12` (stereo not drawn) [Example 192, 4-[4-(8-ethyl-7-fluoro-3-hydroxy-1-naphthyl)-5-fluoro-2-methyl-7-[[1-[[methyl(2,2,2-trifluoroethyl)amino]methyl]cyclopropyl]methoxy]pyrazolo[4,3-f]quinazolin-9-yl]-6-methyl-1,4-oxazepan-6-ol], on KRAS WT, the “KRAS^WT NEA” value is on record as “D (<49% inhibition at 10 μM)”. Moreover, on KRAS G12D, the pIC50 is 5.00 to 7.00.
For `CCc1c(F)ccc2cc(O)cc(-c3c(F)c4nc(OCC5(CN6CC[C@@H](F)C6)CC5)nc(N5CCOCC(C)(O)C5)c4c4cn(C)nc34)c12` (stereo partly drawn) [Example 193, 4-[4-(8-ethyl-7-fluoro-3-hydroxy-1-naphthyl)-5-fluoro-2-methyl-7-[[1-[[(3R)-3-fluoropyrrolidin-1-yl]methyl]cyclopropyl]methoxy]pyrazolo[4,3-f]quinazolin-9-yl]-6-methyl-1,4-oxazepan-6-ol], the pIC50 at KRAS WT and against KRAS G12D was no less than 8.00 each time.
Turning to `CCc1c(F)ccc2cc(O)cc(-c3c(F)c4nc(OCC5(CN6CC[C@@H](O)C6)CC5)nc(N5CCOCC(C)(O)C5)c4c4cn(C)nc34)c12` (stereo partly drawn) [Example 194, 4-[4-(8-ethyl-7-fluoro-3-hydroxy-1-naphthyl)-5-fluoro-2-methyl-7-[[1-[[(3R)-3-hydroxypyrrolidin-1-yl]methyl]cyclopropyl]methoxy]pyrazolo[4,3-f]quinazolin-9-yl]-6-methyl-1,4-oxazepan-6-ol], the pIC50 at KRAS WT and at KRAS G12D was no less than 8.00 throughout.
Turning to `CCc1c(F)ccc2cc(O)cc(-c3c(F)c4nc(OC[C@@]56CCCN5C[C@H](F)C6)nc(N5CCCn6nc(C(=O)N7CCOCC7)cc6C5)c4c4cn(C)nc34)c12` [Example 195, [5-[4-(8-ethyl-7-fluoro-3-hydroxy-1-naphthyl)-5-fluoro-7-[[(2R,8S)-2-fluoro-1,2,3,5,6,7-hexahydropyrrolizin-8-yl]methoxy]-2-methyl-pyrazolo[4,3-f]quinazolin-9-yl]-4,6,7,8-tetrahydropyrazolo[1,5-a][1,4]diazepin-2-yl]-morpholino-methanone], the pIC50 against KRAS WT and against KRAS G12D was no less than 8.00 in each case.
In the case of `CCNC(=O)c1cc2n(n1)CCCN(c1nc(OC[C@@]34CCCN3C[C@H](F)C4)nc3c(F)c(-c4cc(O)cc5ccc(F)c(CC)c45)c4nn(C)cc4c13)C2` [Example 196, N-ethyl-5-[4-(8-ethyl-7-fluoro-3-hydroxy-1-naphthyl)-5-fluoro-7-[[(2R,8S)-2-fluoro-1,2,3,5,6,7-hexahydropyrrolizin-8-yl]methoxy]-2-methyl-pyrazolo[4,3-f]quinazolin-9-yl]-4,6,7,8-tetrahydropyrazolo[1,5-a][1,4]diazepine-2-carboxamide], the pIC50 against KRAS WT and against KRAS G12D was no less than 8.00 throughout.
Turning to `CCc1c(F)ccc2cc(O)cc(-c3c(F)c4nc(OC[C@@]56CCCN5C[C@H](F)C6)nc(N5CCCn6nc(C(=O)N7CCCC7)cc6C5)c4c4cn(C)nc34)c12` [Example 197, [5-[4-(8-ethyl-7-fluoro-3-hydroxy-1-naphthyl)-5-fluoro-7-[[(2R,8S)-2-fluoro-1,2,3,5,6,7-hexahydropyrrolizin-8-yl]methoxy]-2-methyl-pyrazolo[4,3-f]quinazolin-9-yl]-4,6,7,8-tetrahydropyrazolo[1,5-a][1,4]diazepin-2-yl]-pyrrolidin-1-yl-methanone], the pIC50 against KRAS WT and against KRAS G12D was no less than 8.00 throughout.
On to `CCc1c(F)ccc2cc(O)cc(-c3cc4nc(OC[C@@]56CCCN5C[C@H](F)C6)nc(N5CCOC6(COC6)C5)c4c4cn(C)nc34)c12` [Example 199, 4-[9-(2,5-dioxa-8-azaspiro[3.5]nonan-8-yl)-2-methyl-7-[[(2R,8S)-2-fluoro-1,2,3,5,6,7-hexahydropyrrolizin-8-yl]methoxy]pyrazolo[4,3-f]quinazolin-4-yl]-5-ethyl-6-fluoro-naphthalen-2-ol], for which the pIC50 against KRAS WT and on KRAS G12D was 7.00 to 8.00 throughout.
Take `CCc1c(F)ccc2cc(O)cc(-c3cc4nc(OC[C@@]56CCCN5C[C@H](F)C6)nc(N5CCCC6(CCC(O)C6)C5)c4c4cn(C)nc34)c12` (stereo partly drawn) [Example 200, 7-[4-(8-ethyl-7-fluoro-3-hydroxy-1-naphthyl)-2-methyl-7-[[(2R,8S)-2-fluoro-1,2,3,5,6,7-hexahydropyrrolizin-8-yl]methoxy]pyrazolo[4,3-f]quinazolin-9-yl]-7-azaspiro[4.5]decan-3-ol]: the pIC50 against KRAS WT and on KRAS G12D was 5.00 to 7.00 in each case.
Consider `CCc1c(F)ccc2cc(O)cc(-c3cc4nc(OC[C@@]56CCCN5C[C@H](F)C6)nc(N5CCCC6(COC6)C5)c4c4cn(C)nc34)c12` [Example 201, 5-ethyl-6-fluoro-4-[2-methyl-9-(2-oxa-8-azaspiro[3.5]nonan-8-yl)-7-[[(2R,8S)-2-fluoro-1,2,3,5,6,7-hexahydropyrrolizin-8-yl]methoxy]pyrazolo[4,3-f]quinazolin-4-yl]naphthalen-2-ol], for which the pIC50 at KRAS WT was 5.00 to 7.00; against KRAS G12D it was no less than 8.00.
For `CCc1c(F)ccc2cc(O)cc(-c3c(F)c4nc(OCC5(CN6CCCC6)CC5)nc(N5CCC[C@@](C)(O)C5)c4c4cn(C)nc34)c12` [Example 202, (3R)-1-[4-(8-ethyl-7-fluoro-3-hydroxy-1-naphthyl)-5-fluoro-2-methyl-7-[[1-(pyrrolidin-1-ylmethyl)cyclopropyl]methoxy]pyrazolo[4,3-f]quinazolin-9-yl]-3-methyl-piperidin-3-ol] the same measures were no less than 8.00 and no less than 8.00.
The like results for `CCc1c(F)ccc2cc(O)cc(-c3c(F)c4nc(OCC56CCCN5CCC6)nc(N5CCC[C@@](C)(O)C5)c4c4cn(C)nc34)c12` [Example 203, (3R)-1-[4-(8-ethyl-7-fluoro-3-hydroxy-1-naphthyl)-5-fluoro-7-(1,2,3,5,6,7-hexahydropyrrolizin-8-ylmethoxy)-2-methyl-pyrazolo[4,3-f]quinazolin-9-yl]-3-methyl-piperidin-3-ol] were, in that order, no less than 8.00 and no less than 8.00.
The like results for `CCc1c(F)ccc2cc(O)cc(-c3c(C)c4nc(OCC5(CN(C)C)CC5)nc(N5CCC[C@@](C)(O)C5)c4c4cn(C)nc34)c12` [Example 204, (3R)-1-[7-[[1-[(dimethylamino)methyl]cyclopropyl]methoxy]-4-(8-ethyl-7-fluoro-3-hydroxy-1-naphthyl)-2,5-dimethyl-pyrazolo[4,3-f]quinazolin-9-yl]-3-methyl-piperidin-3-ol] were, in that order, no less than 8.00 and no less than 8.00.
For the molecule `CCc1c(F)ccc2cc(O)cc(-c3c(C)c4nc(OCC56CCCN5CCC6)nc(N5CCC[C@@](C)(O)C5)c4c4cn(C)nc34)c12` [Example 205, (3R)-1-[4-(8-ethyl-7-fluoro-3-hydroxy-1-naphthyl)-7-(1,2,3,5,6,7-hexahydropyrrolizin-8-ylmethoxy)-2,5-dimethyl-pyrazolo[4,3-f]quinazolin-9-yl]-3-methyl-piperidin-3-ol], the pIC50 at KRAS WT and against KRAS G12D was no less than 8.00 in each case.
As for `CCc1c(F)ccc2cc(O)cc(-c3c(F)c4nc(OCC5(CF)COC5)nc(N5CCCn6nc(C(=O)N(C)C)cc6C5)c4c4cn(C)nc34)c12` [Example 206, 5-[4-(8-ethyl-7-fluoro-3-hydroxy-1-naphthyl)-5-fluoro-7-[[3-(fluoromethyl)oxetan-3-yl]methoxy]-2-methyl-pyrazolo[4,3-f]quinazolin-9-yl]-N,N-dimethyl-4,6,7,8-tetrahydropyrazolo[1,5-a][1,4]diazepine-2-carboxamide], the pIC50 at KRAS WT was 7.00 to 8.00; against KRAS G12D, no less than 8.00.
`CCc1c(F)ccc2cc(O)cc(-c3c(F)c4nc(OCC5(C#N)CCOC5)nc(N5CCCn6nc(C(=O)N(C)C)cc6C5)c4c4cn(C)nc34)c12` (stereo not drawn) [Example 207, 5-[7-[(3-cyanotetrahydrofuran-3-yl)methoxy]-4-(8-ethyl-7-fluoro-3-hydroxy-1-naphthyl)-5-fluoro-2-methyl-pyrazolo[4,3-f]quinazolin-9-yl]-N,N-dimethyl-4,6,7,8-tetrahydropyrazolo[1,5-a][1,4]diazepine-2-carboxamide]: the pIC50 against KRAS WT was 7.00 to 8.00; at KRAS G12D it was no less than 8.00.
For `CCc1c(F)ccc2cc(O)cc(-c3c(F)c4nc(OCC56COC(COC)(C5)C6)nc(N5CCCn6nc(C(=O)N(C)C)cc6C5)c4c4cn(C)nc34)c12` [Example 208, 5-[4-(8-ethyl-7-fluoro-3-hydroxy-1-naphthyl)-5-fluoro-7-[[1-(methoxymethyl)-2-oxabicyclo[2.1.1]hexan-4-yl]methoxy]-2-methyl-pyrazolo[4,3-f]quinazolin-9-yl]-N,N-dimethyl-4,6,7,8-tetrahydropyrazolo[1,5-a][1,4]diazepine-2-carboxamide] the same measures were 7.00 to 8.00 and no less than 8.00.
With `CCc1c(F)ccc2cc(O)cc(-c3c(C)c4nc(OC[C@@]56CCCN5C[C@H](F)C6)nc(N5CCCn6nc(C(=O)N7CCOCC7)cc6C5)c4c4cn(C)nc34)c12` [Example 209, [5-[4-(8-ethyl-7-fluoro-3-hydroxy-1-naphthyl)-7-[[(2R,8S)-2-fluoro-1,2,3,5,6,7-hexahydropyrrolizin-8-yl]methoxy]-2,5-dimethyl-pyrazolo[4,3-f]quinazolin-9-yl]-4,6,7,8-tetrahydropyrazolo[1,5-a][1,4]diazepin-2-yl]-morpholino-methanone], the pIC50 against KRAS WT and at KRAS G12D was no less than 8.00 each time.
For the molecule `CCc1c(F)ccc2cc(O)cc(-c3cc4nc(OC[C@@]56CCCN5C[C@H](F)C6)nc(N5CC6CCC(C5)C6C#N)c4c4cn(C)nc34)c12` (stereo partly drawn) [Example 210, 3-[4-(8-ethyl-7-fluoro-3-hydroxy-1-naphthyl)-7-[[(2R,8S)-2-fluoro-1,2,3,5,6,7-hexahydropyrrolizin-8-yl]methoxy]-2-methyl-pyrazolo[4,3-f]quinazolin-9-yl]-3-azabicyclo[3.2.1]octane-8-carbonitrile], the pIC50 on KRAS WT and against KRAS G12D was 7.00 to 8.00 throughout.

In general, pIC50 refers to the negative decadic logarithm of the IC50, by convention in mol/L. A high value points to a low IC50.
